Here are results for 2 compounds from US20110104256A1, “METHODS FOR TREATING OR PREVENTING COLORECTAL CANCER” (priority 2008, published 2011).

The experiment relates to WiDr human colorectal adenocarcinoma cells. Description: Inhibition of colorectal tumor growth in WiDr xenograft model. As to conditions: for % Growth Inhibition: WiDr xenograft, nude mice. It counts as in vivo, nude mouse (nu/nu). The text has this: In these experiments, 5 million WiDr human colorectal adenocarcinoma cells, mixed 1:1 with Matrigel, were inoculated subcutaneously to the flank of each nude mouse (nu/nu).

The mark [1] stands for this setting: Day 10 post inoculation, 0.5 mg anti-IGF1R IP 2x/week, 40 mpk Sunitinib PO QD (Table 6).
Where [2] appears, read: Day 14 post inoculation, 0.5 mg anti-IGF1R IP 2x/week, 40 mpk Sunitinib PO QD (Table 6).
[3] abbreviates: Day 17 post inoculation, 0.5 mg anti-IGF1R IP 2x/week, 40 mpk Sunitinib PO QD (Table 6).
Setting [4] is: Day 21 post inoculation, 0.5 mg anti-IGF1R IP 2x/week, 40 mpk Sunitinib PO QD (Table 6).
The mark [5] stands for this setting: Day 24 post inoculation, 0.5 mg anti-IGF1R IP 2x/week, 40 mpk Sunitinib PO QD (Table 6).
[6] abbreviates: Day 28 post inoculation, 0.5 mg anti-IGF1R IP 2x/week, 40 mpk Sunitinib PO QD (Table 6).
[7] abbreviates: Day 35 post inoculation, 0.5 mg anti-IGF1R IP 2x/week, 40 mpk Sunitinib PO QD (Table 6).
Setting [8] is: 0.5 mg anti-IGF1R IP 2x/week, 40 mpk Sunitinib PO QD (Table 5).

Marks after values point to notes of the source that are not given here.

In the case of `CCN(CC)CCNC(=O)c1c(C)[nH]c(/C=C2\C(=O)Nc3ccc(F)cc32)c1C` [Sunitinib, sunitinib, reference compound], the Mean tumor volume is recorded as 95.8 mm^3 under setting [1]; 125.4 mm^3 under setting [2]; 143.1 mm^3 under setting [3]; 175.6 mm^3 under setting [4]; 194.8 mm^3 under setting [5]; 205.9 mm^3 under setting [6]. The same compound came in with a Mean tumor volume under setting [7] of 238.6 mm^3. Further, the “% Growth Inhibition” value under setting [8] is reported as 79^a %.

Turning to “anti-IGF1R: anti-IGF1R antibody with 15H12/19D12 immunoglobulin light chain-F (LCF, κ) and heavy chain-A (HCA, γ1)”, the Mean tumor volume is 93.1 mm^3 under setting [1]; 93.1 mm^3 (Day 10 post inoculation, 0.5 mg anti-IGF1R, 10 mpk Leucovorin/60 mpk 5-FU, IP 2x/week (Table 3)); 148.0 mm^3 under setting [2]; 148.0 mm^3 (Day 14 post inoculation, 0.5 mg anti-IGF1R, 10 mpk Leucovorin/60 mpk 5-FU, IP 2x/week (Table 3)); 192.0 mm^3 under setting [3]; 192.0 mm^3 (Day 17 post inoculation, 0.5 mg anti-IGF1R, 10 mpk Leucovorin/60 mpk 5-FU, IP 2x/week (Table 3)). Moreover, the Mean tumor volume under setting [4] is 254.1 mm^3; the Mean tumor volume (Day 21 post inoculation, 0.5 mg anti-IGF1R, 10 mpk Leucovorin/60 mpk 5-FU, IP 2x/week (Table 3)) is 254.1 mm^3; the Mean tumor volume under setting [5] was found to be 317.0 mm^3; the Mean tumor volume (Day 24 post inoculation, 0.5 mg anti-IGF1R, 10 mpk Leucovorin/60 mpk 5-FU, IP 2x/week (Table 3)) is listed as 317.0 mm^3; the Mean tumor volume under setting [6] came out at 403.1 mm^3; the Mean tumor volume (Day 28 post inoculation, 0.5 mg anti-IGF1R, 10 mpk Leucovorin/60 mpk 5-FU, IP 2x/week (Table 3)) is recorded as 403.1 mm^3. Also, the Mean tumor volume runs as follows: (Day 31 post inoculation, 0.5 mg anti-IGF1R IP 2x/week, 40 mpk Sunitinib PO QD (Table 6)) 474.5 mm^3; (Day 31 post inoculation, 0.5 mg anti-IGF1R, 10 mpk Leucovorin/60 mpk 5-FU, IP 2x/week (Table 3)) 474.5 mm^3; under setting [7], 577.6 mm^3; (Day 35 post inoculation, 0.5 mg anti-IGF1R, 10 mpk Leucovorin/60 mpk 5-FU, IP 2x/week (Table 3)) 577.6 mm^3. For the same compound, the “% Growth Inhibition” value runs as follows: under setting [8], 30%; (0.5 mg anti-IGF1R IP 2x/week, 60 mpk 5-FU/10 mpk Leucovorin IP 2x/week (Table 2)) 30%.
